In US9289430B2, “Compounds and methods for inhibiting phosphate transport” (Ardelyx, Inc., priority 2010, dated 2016):

How the values were obtained:
[1] = molecular target: T1, human NaP2b (SLC34A2) (Homo sapiens, UniProt O95436); experiment: NaP2b-mediated Pi transport: 33P phosphate uptake into transfected HEK293 cells; type: cell-based; settings: human protein with threonine inserted after residue 37 and N39D, 100 uM KH2PO4, read-out: pIC50 range for human Nap2b (converted)
T1 construct: host or cells: HEK293
T1 sequence (O95436 1-690): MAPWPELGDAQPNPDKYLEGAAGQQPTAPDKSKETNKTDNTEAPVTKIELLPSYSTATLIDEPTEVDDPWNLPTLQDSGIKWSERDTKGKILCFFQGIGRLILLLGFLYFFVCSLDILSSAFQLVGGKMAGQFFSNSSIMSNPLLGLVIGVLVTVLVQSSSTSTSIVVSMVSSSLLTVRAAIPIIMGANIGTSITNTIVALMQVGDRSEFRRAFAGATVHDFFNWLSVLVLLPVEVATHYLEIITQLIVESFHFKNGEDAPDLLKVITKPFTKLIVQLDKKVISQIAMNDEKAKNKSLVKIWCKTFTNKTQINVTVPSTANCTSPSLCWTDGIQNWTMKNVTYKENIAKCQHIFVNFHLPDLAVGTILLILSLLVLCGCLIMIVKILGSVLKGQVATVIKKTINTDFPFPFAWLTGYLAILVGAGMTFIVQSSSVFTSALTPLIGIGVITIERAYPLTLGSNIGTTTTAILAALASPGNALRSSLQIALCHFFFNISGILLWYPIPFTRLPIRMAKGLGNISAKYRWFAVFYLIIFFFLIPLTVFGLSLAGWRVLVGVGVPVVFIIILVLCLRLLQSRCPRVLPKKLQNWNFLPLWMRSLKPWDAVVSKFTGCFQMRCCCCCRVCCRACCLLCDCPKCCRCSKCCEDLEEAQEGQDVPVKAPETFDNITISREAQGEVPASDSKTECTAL
Experimental: (§1) Materials. HEK293 cells were obtained from the American Type Culture collection and propagated per their instructions. Expression clones for rat and human NaP2b (SLC34A2) were obtained from Open Biosystems (Catalog numbers MRN1768-9510282, and MHS1010-99823026, respectively). The sequence of the human protein was mutated to insert a threonine after residue 37, and to introduce a N39D mutation.
(§2) Inhibition of Pi Transport. The rate of phosphate (Pi) uptake into HEK293 cells was measured using a modification of the method described by Mohrmann et al. (Mohrmann, I., Mohrmann, M., Biber, J., and Murer, H. (1986) Am. J. Phys. 250(3 Pt 1):G323-30.) Transfected HEK293 cells were treated with a pharmacological agent to minimize endogenous PiT-mediated phosphate transport activity, such that the only remaining sodium-dependent phosphate transport activity is that which was bestowed by introduction of the NaP2b genes.
(§3) Cells were seeded into 96-well plates at 25,000 cells/well and cultured overnight. Lipofectamine 2000 (Invitrogen) was used to introduce the NaP2b cDNA, and the cells were allowed to approach confluence during a second overnight incubation. […] Cells were then overlayed with either choline uptake buffer or sodium uptake buffer (14 mM Tris, 137 mM sodium chloride, 5.4 mM KCl, 2.8 mM CaCl2, 1.2 mM MgSO4, 100 uM KH2PO4, PiT-silencing agent, 1 mg/mL Bovine Serum Albumin, pH 7.4) containing 6-9 uCi/mL ^33P orthophosphoric acid (Perkin Elmer) and test compound. Each compound was tested at twelve concentrations ranging from 0.1 nM to 30 uM. Assays were run in duplicate.
(§4) After incubation for 3-30 minutes at room temperature, assay mixtures were removed, and the cells were washed twice with ice cold stop solution (137 mM sodium chloride, 14 mM Tris, pH 7.4). Cells were lysed by addition of 20 μL 0.1% Tween 80 followed by 100 μL scintillation fluid, and counted using a TopCount (Perkin Elmer).
(§5) pIC50 (the negative log of the IC50) values of the test compounds were calculated using GraphPad Prism.

[2] = molecular target: T2, rat NaP2b (SLC34A2) (Rattus norvegicus, UniProt Q9JJ09); experiment: as above; type: cell-based; settings: 100 uM KH2PO4, PiT-silencing agent; for IC50: read-out: pIC50 range for rat Nap2b (converted)
T2 construct: host or cells: HEK293
T2 sequence (Q9JJ09 1-695): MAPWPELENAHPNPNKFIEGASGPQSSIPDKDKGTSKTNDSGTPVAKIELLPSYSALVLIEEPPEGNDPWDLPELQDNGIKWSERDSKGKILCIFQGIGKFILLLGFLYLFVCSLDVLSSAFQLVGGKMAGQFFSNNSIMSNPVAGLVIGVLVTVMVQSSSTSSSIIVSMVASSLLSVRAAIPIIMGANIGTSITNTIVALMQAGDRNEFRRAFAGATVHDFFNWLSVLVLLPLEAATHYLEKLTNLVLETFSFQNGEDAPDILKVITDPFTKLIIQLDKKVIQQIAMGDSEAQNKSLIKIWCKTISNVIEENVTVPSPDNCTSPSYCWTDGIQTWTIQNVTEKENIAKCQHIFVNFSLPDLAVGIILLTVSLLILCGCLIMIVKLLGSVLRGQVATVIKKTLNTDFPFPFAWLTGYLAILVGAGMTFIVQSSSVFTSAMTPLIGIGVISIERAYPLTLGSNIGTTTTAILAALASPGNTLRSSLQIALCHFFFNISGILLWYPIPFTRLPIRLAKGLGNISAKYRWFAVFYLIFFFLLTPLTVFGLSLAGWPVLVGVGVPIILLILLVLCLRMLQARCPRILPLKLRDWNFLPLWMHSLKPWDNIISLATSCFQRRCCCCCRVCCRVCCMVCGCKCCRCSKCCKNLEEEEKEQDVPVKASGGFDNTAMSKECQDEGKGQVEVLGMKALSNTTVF
Experimental: as §1, §2, §3, §4, §5

[3] = Fecal recovery of orally administered compounds; type: in vivo, Sprague-Dawley rats; settings: rats, oral gavage, feces 0-48 hr after dosing
Experimental: Quantitative determination of test compound level in feces after oral gavage was performed using the same set of animals used to determine test compound concentration in plasma (Example 30). The animals were kept in metabolic cages and feces were collected from the time of dosing until 48 hr after dosing. Upon collection, feces was dried by lyophilization and ground to a visually homogenous powder. Duplicate samples of ground feces from each individual animal were weighed out and extracted using organic solvent. Extracted samples were then diluted into mobile phase and test compound levels were quantitatively determined by LC-MS/MS analysis as described in “Example 30” except that the standard curve was prepared in a feces matrix. Extraction conditions were not optimized for individual compounds, and thus may represent a minimal level of recovery.

[4] = test system: Uptake of Phosphate from the Intestine; experiment: In vivo bolus phosphorus challenge; set-up: species or system Sprague-Dawley rats; settings: rats on low-phosphorus diet, oral drug dose 30 (unit not given) 15 min before phosphate bolus, serum 30 min post bolus
Experimental: By pretreating animals with a low phosphorus diet followed by the subsequent dosing of a phosphorus bolus, serum phosphorus levels were monitored after 30 minutes as a surrogate for intestinal phosphorus absorption. […] The in vivo bolus phosphorus challenge model used here mimics this model in rats.
Male, 7-week-old Sprague-Dawley rats (Charles-River laboratories international, Hollister, Calif.) were allowed to acclimatize for a minimum of 3 days before switching to a synthetic low-phosphorus diet (TD.85010, Harlan Teklad, Madison, Wis.) which contains 0.1% phosphorus and 0.6% calcium. At day 5, testing compounds or vehicle alone (as indicated) were orally administered at the indicated dose in a volume of 5 ml/kg, followed by a bolus gavage of monobasic sodium phosphate (1 mmol in 1 ml) 15 min after compound dosing. Serum was collected via retroorbital bleeding 30 min post phosphate bolus and phosphate levels were determined utilizing an ACE ALERA blood chemistry analyzer (Alfa Wassermann Diagnostic Technologies, West Caldwell, N.J.).
The extent of inhibition by test compounds on the elevation of serum phosphate levels in response to the bolus of phosphate is shown in Table 3 (data are expressed as % Inhibition, with 6-10 animals per data point). The differences between groups were evaluated by one-way analysis of variance with Dunnett's post hoc tests.

[5] = test system: NaPi2b; experiment: Competition with phosphate: uptake assay repeated at 2.1 vs 0.1 mM phosphate; type: cell-based; settings: potency for inhibition of NaPi2b at 2.1 vs 0.1 mM phosphate
Excerpt: In certain preferred embodiments, the phosphate transport inhibitors of the present invention are not competitive inhibitors with respect to phosphate of Na/phosphate co-transport. In certain other preferred embodiments, the phosphate transport inhibitors of the invention are non-competitive inhibitors. Non-competitive inhibitors maintain their degree of inhibition irrespective of the local phosphate concentration. This feature is an important aspect in providing an efficient blockade of intestinal transport in postprandial state, where the local concentration of dietary phosphate can attain concentration as high as 10 mM. It is believed that competitive inhibitors are too sensitive to local phosphate concentration and unable to block phosphate uptake following a high phosphorus meal. Various methods are available for determining whether a phosphate transport inhibitor is non-competitive or competitive. For example, a phosphate uptake assay can be performed and the IC50 values for a compound at different phosphate concentrations can be determined (e.g., “Enzyme kinetics”, I. Segel, 1975, John-Wiley & Sons, p. 123). IC50 values for non-competitive inhibitors will remain the same or similar with respect to the phosphate concentration, whereas IC50 values for competitive inhibitors will increase (i.e. lose potency) as phosphate concentration increases.
To ascertain if an inhibitor was competitive for binding with phosphate, the procedure was repeated, but raising the concentration of the substrate in the assay mixture from 0.1 to 2.1 mM phosphate.

[6] = Determination of compound Cmax and AUC after oral gavage; type: in vivo, Sprague-Dawley rats; settings: Sprague-Dawley, rat plasma, sampling 0.5-4 h
Experimental: Sprague-Dawley rats were orally gavaged with test article at a nominal dose of 2.5 or 10 mg/kg and blood was collected at 0.5, 1, 2 and 4 h. Blood samples were processed to plasma using K2EDTA as an anticoagulant. Plasma samples were treated with acetonitrile containing an internal standard, precipitated proteins removed by centrifugation. Supernatants were analyzed by LC-MS/MS and compound concentrations were determined by interpolated from a standard curve prepared in plasma. All compounds were orally dosed at the dosage shown, and pharmacokinetic parameters determined

[7] = Stability in simulated gastric and intestinal fluid; type: in vitro ADME; settings: 6 hr, 1-20 μM
Experimental: Test compounds were incubated at 1-20 μM in simulated gastric fluid (SGF; standard USP solution with 3 mg/mL pepsin) or simulated intestinal fluid (SIF; standard USP solution with 3 mg/mL pancreatin) for 3 hr or 6 hr. HPLC-UV or HPLC-MS were used to determine test compound levels using peak area %. Results (Table 5) were reported as the percentage of test compound remaining after incubation in a given condition relative to test compound present at t=0 in the same condition.

[8] = nominal 10 mg/kg (actual 7.6-11 mg/kg)
[9] = nominal 2.5 mg/kg (actual 1.9 mg/kg)

IC50 [1] [nM]	IC50 [2] [nM]	% recovered in feces [3, 8] [%]	Compound	also measured
< 1000	< 1000		O=C(O)Cc1cccc(SCc2cccc(C(=O)Nc3ccc(N4CCCCC4)cc3C(=O)Nc3ccn(-c4cccc(C(F)(F)F)c4)n3)c2)c1 [Example 23, 2-(3-((3-((4-(Piperidin-1-yl)-2-((1-(3-(trifluoromethyl)phenyl)-1H-pyrazol-3-yl)carbamoyl)phenyl)carbamoyl)benzyl)thio)phenyl)acetic acid]	
		17	O=C(O)CCOCCOCCOCCNC(=O)c1cccc(C(=O)Nc2ccc(Cl)cc2C(=O)Nc2ccn(-c3cccc(C(F)(F)F)c3)n2)c1 [Example 25, 1-(3-((4-chloro-2-((1-(3-(trifluoromethyl)phenyl)-1H-pyrazol-3-yl)-carbamoyl)phenyl)carbamoyl)phenyl)-1-oxo-5,8,11-trioxa-2-azatetradecan-14-oic acid]	AUC [6, 8]: < 3 ng·h/mL; % remaining, SGF ([7]; simulated gastric fluid with 3 mg/mL pepsin): 58%; % remaining, SIF ([7]; simulated intestinal fluid with 3 mg/mL pancreatin): 95%

The remaining lines, values behind:

Compound	IC50 [1] [nM]	IC50 [2] [nM]	% recovered in feces [3, 8] [%]	also measured
CN(CCN1CCOCC1)C(=O)c1cccc(C(=O)Nc2ccc(N3CCCCC3)cc2C(=O)Nc2nc(-c3cccc(C(F)(F)F)c3)n[nH]2)c1 [Example 1, N1-Methyl-N1-(2-morpholinoethyl)-N3-(4-(piperidin-1-yl)-2-((3-(3-(trifluoromethyl)phenyl)-1H-1,2,4-triazol-5-yl)carbamoyl)phenyl)isophthalamide]	< 1000	< 1000		
O=C(O)CCSCc1cccc(C(=O)Nc2ccc(N3CCCCC3)cc2C(=O)Nc2ccn(-c3cccc(C(F)(F)F)c3)n2)c1 [Example 7, 3-((3-((4-(Piperidin-1-yl)-2-((1-(3-(trifluoromethyl)phenyl)-1H-pyrazol-3-yl)carbamoyl)phenyl)carbamoyl)benzyl)thio)propanoic acid]	1000 to 7940	1000 to 7940	9.5	% Inhibition of Serum P elevation [4]: 49%
CN(CCOCCOCCOCCC(=O)O)Cc1cccc(C(=O)Nc2ccc(N3CCCCC3)cc2C(=O)Nc2ccn(-c3cccc(C(F)(F)F)c3)n2)c1 [Example 17, 2-Methyl-1-(3-((4-(piperidin-1-yl)-2-((1-(3-(trifluoromethyl)phenyl)-1H-pyrazol-3-yl)carbamoyl)phenyl)carbamoyl)phenyl)-5,8,11-trioxa-2-azatetradecan-14-oic acid]	1000 to 7940	1000 to 7940		
O=C(O)c1cccc(SCc2cccc(C(=O)Nc3ccc(N4CCCCC4)cc3C(=O)Nc3ccn(-c4cccc(C(F)(F)F)c4)n3)c2)c1 [Example 18, 3-((3-((4-(Piperidin-1-yl)-2-((1-(3-(trifluoromethyl)phenyl)-1H-pyrazol-3-yl)carbamoyl)phenyl)carbamoyl)benzyl)thio)benzoic acid]		1000 to 7940	60	Competitive with respect to Pi? [5]: No; AUC [6, 9]: 2130 ng·h/mL; Cmax [6, 9]: 678 ng/mL; AUC [6, 8]: 6050 ng·h/mL; Cmax [6, 8]: 1820 ng/mL; % recovered in feces ([3]; dosed at 1.9 mg/kg): 12%
O=C(O)P(=O)(O)O [PFA, reference compound]				Competitive with respect to Pi? [5]: Yes; pIC50 range for rat Nap2b [2]: 2-3
